In patent publication US20250032485A1, “APPLICATION OF IMIDAZO [1,2-A] PYRAZINE COMPOUNDS OR THEIR PHARMACEUTICALLY ACCEPTABLE SALTS IN THE PREPARATION OF ANTI-CORONAVIRUS DRUGS” (GUANGZHOU MEDICAL UNIVERSITY, priority 2023, published 2025):

Each molecule was assayed against PLpro of SARS-CoV-2 (Severe acute respiratory syndrome coronavirus 2, UniProt P0DTD1) (assay: Enzyme activity test in vitro: inhibition of PLpro at fixed concentration 50 μM (RLRGG-AMC substrate)). Conditions: read-out: Inhibition rate at 50 μM (%).
Type: biochemical
In the case of `CCOC(=O)c1ccc(Nc2c(-c3cccc(Br)c3)nc3cnccn23)cc1` [P22532, ethyl 4-[[2-(3-bromophenyl)imidazo[1,2-a]pyrazin-3-yl]amino] benzoate], the inhibition at 50 µM was 24.2%.
Work on `CCc1cccc(C)c1Nc1c(-c2ccc(C(=O)OC)cc2)nc2cnccn12` [P36232, methyl 4-[3-(2-ethyl-6-methylanilino)imidazo [1,2-a]pyrazin-2-yl]benzoate] yielded an inhibition at 50 µM of 20.3%.
Work on `CN(C)c1ccc(-c2nc3cnccn3c2Nc2cccc(C(=O)O)c2)cc1` [P19447, 3-[[2-[4-(dimethyl-amino)phenyl]imidazo [1,2-a]pyrazin-3-yl]amino]benzoic acid] yielded an inhibition at 50 µM of 42.1%.
Work on `COC(=O)c1cccc(Nc2c(-c3ccccc3O)nc3cnccn23)c1` [P37347, methyl 3-[[2-(2-hydroxy-phenyl)imidazo[1,2-a]pyrazin-3-yl]amino] benzoate] yielded an inhibition at 50 µM of 25%.
In the case of `CSc1ccc(-c2nc3cnccn3c2Nc2cccc(C(=O)NCCN(C)C)c2)cc1` [P22467, N-[2-(dimethylamino)ethyl]-3-[[2-(4-methylsulfanylphenyl)imidazo[1,2-a]pyrazin-3-yl]amino] benzamide], the inhibition at 50 µM was 29.8%.
`COc1ccc(-c2nc3cnccn3c2Nc2cccc(C(=O)NCc3ccco3)c2)cc1` [P22459, N-(furan-2-ylmethyl)-3-[[2-(4-methoxy-phenyl)imidazo[1,2-a]pyrazin-3-yl]amino]benzamide] was tested, and the inhibition at 50 µM was 35.4%.
Work on `COC(=O)c1cccc(Nc2c(-c3cccc(O)c3)nc3cnccn23)c1` [P37288, methyl 3-[[2-(3-hydroxy-phenyl)imidazo[1,2-a]pyrazin-3-yl]amino]benzoate] yielded an inhibition at 50 µM of 13.2%.
Work on `COc1ccc(-c2nc3cnccn3c2Nc2ccc(C(=O)NC(C)C)cc2)cc1OC` [P22420, 4-[[2-(3,4-dimethoxy-phenyl)imidazo[1,2-a]pyrazin-3-yl]amino]-N-propan-2-ylbenzamide] yielded an inhibition at 50 µM of 43.9%.
Molecule `COc1ccc(-c2nc3cnccn3c2Nc2ccc3c(c2)OCCO3)cc1OC` [P24852, N-(2,3-dihydro-1,4-benzodioxin-6-yl)-2-(3,4-dimethoxy-phenyl)imidazo[1,2-a]pyrazin-3-amine] has an inhibition at 50 µM of 24.9%.
Molecule `O=C(O)c1cccc(Nc2c(-c3ccccc3O)nc3cnccn23)c1` [P37318, 3-[[2-(2-hydroxy-phenyl)imidazo[1,2-a]pyrazin-3-yl]amino] benzoic acid] has an inhibition at 50 µM of 15.9%.
`COC(=O)c1cccc(Nc2c(-c3ccc(OC)cc3)nc3cnccn23)c1` [P19485, methyl 3-[[2-(4-methoxy-phenyl)imidazo[1,2-a]pyrazin-3-yl]amino] benzoate] showed an inhibition at 50 µM of 36%.
For `CCc1cccc(C)c1Nc1c(-c2ccc(C(=O)NC)cc2)nc2cnccn12` [P22501, 4-[3-(2-ethyl-6-methyl-anilino)imidazo [1,2-a]pyrazin-2-yl]-N-methyl-benzamide], the inhibition at 50 µM was 28.7%.
`O=C(c1ccc(Nc2c(-c3ccccc3)nc3cnccn23)cc1)N1CCOCC1` [P22474, morpholin-4-yl-[4-[(2-phenylimidazo [1,2-a]pyrazin-3-yl)amino]phenyl] methanone] gave an inhibition at 50 µM of 35.3%.
In the case of `Cc1ccc(-c2nc3cnccn3c2Nc2cccc(C(=O)O)c2)cc1` [P37308, 3-[[2-(4-methyl-phenyl)imidazo[1,2-a]pyrazin-3-yl]amino] benzoic acid], the inhibition at 50 µM was 20.8%.
`O=C(NCc1ccco1)c1cccc(Nc2c(-c3ccc(Cl)cc3)nc3cnccn23)c1` [P22469, 3-[[2-(4-chlorophenyl)imidazo[1,2-a]pyrazin-3-yl]amino]-N-(furan-2-ylmethyl) benzamide] showed an inhibition at 50 µM of 40.5%.
`O=C(O)c1cccc(Nc2c(-c3ccc(O)cc3)nc3cnccn23)c1` [P19496, 3-[[2-(4-hydroxy-phenyl)imidazo[1,2-a]pyrazin-3-yl]amino] benzoic acid] showed an inhibition at 50 µM of 40.5%.
Work on `CCNC(=O)c1cccc(Nc2c(-c3ccc(SC)cc3)nc3cnccn23)c1` [P22466, N-ethyl-3-[[2-(4-methylsulfanylphenyl)imidazo[1,2-a]pyrazin-3-yl]amino] benzamide] yielded an inhibition at 50 µM of 22.2%.
`CCNC(=O)c1ccc(Nc2c(-c3ccc(C)cc3)nc3cnccn23)cc1` [P22412, N-ethyl-4-[[2-(4-methylphenyl)imidazo [1,2-a]pyrazin-3-yl]amino]benzamide] gave an inhibition at 50 µM of 33.5%.
`NC(=O)c1cccc(Nc2c(-c3ccc(Cl)cc3)nc3cnccn23)c1` [P19492, 3-[[2-(4-chlorophenyl)imidazo[1,2-a]pyrazin-3-yl]amino] benzamide] was tested, and the inhibition at 50 µM was 35.4%.
For `CNC(=O)c1cccc(Nc2c(-c3ccc(SC)cc3)nc3cnccn23)c1` [P22436, N-methyl-3-[[2-(4-methylsulfanylphenyl)imidazo[1,2-a]pyrazin-3-yl]amino] benzamide], the inhibition at 50 µM was 31.3%.
For `COc1ccc(-c2nc3cnccn3c2Nc2ccc(C(=O)N3CCCCC3)cc2)cc1OC` [P22460, [4-[[2-(3,4-dimethoxy-phenyl)imidazo[1,2-a]pyrazin-3-yl]amino]phenyl]-piperidin-1-ylmethanone], the inhibition at 50 µM was 31.8%.
Molecule `O=C(NCCN1CCOCC1)c1cccc(Nc2c(-c3ccccc3)nc3cnccn23)c1` [P22427, N-[2-(1,4-oxazinan-4-yl)ethyl]-3-[(2-phenylimidazo[1,2-a]pyrazin-3-yl)amino] benzamide] has an inhibition at 50 µM of 22.8%.
Work on `CSc1ccc(-c2nc3cnccn3c2Nc2cccc(C(=O)N3CCOCC3)c2)cc1` [P22439, [3-[[2-(4-methyl-sulfanylphenyl)imidazo [1,2-a]pyrazin-3-yl]amino]phenyl]-morpholin-4-ylmethanone] yielded an inhibition at 50 µM of 23.2%.
Work on `O=C(NCCN1CCOCC1)c1cccc(Nc2c(-c3ccc(Cl)cc3)nc3cnccn23)c1` [P22447, 3-[[2-(4-chlorophenyl)imidazo[1,2-a]pyrazin-3-yl]amino]-N-(2-morpholin-4-ylethyl)benzamide] yielded an inhibition at 50 µM of 41.9%.
Molecule `COC(=O)c1cccc(Nc2c(-c3ccc(Cl)cc3)nc3cnccn23)c1` [P37337, methyl 3-[[2-(4-chlorophenyl)imidazo[1,2-a]pyrazin-3-yl]amino] benzoate] has an inhibition at 50 µM of 23%.
With `COc1ccc(-c2nc3cnccn3c2Nc2ccc(C(=O)NCCN(C)C)cc2)cc1` [P22443, N-[2-(dimethylamino)ethyl]-4-[[2-(4-methoxyphenyl)imidazo[1,2-a]pyrazin-3-yl]amino]benzamide] the inhibition at 50 µM was 41.2%.
`COC(=O)c1ccc(-c2nc3cnccn3c2Nc2ccc(OC)cc2)cc1` [P28376, methyl 4-[3-(4-methoxy-anilino)imidazo[1,2-a]pyrazin-2-yl]benzoate] gave an inhibition at 50 µM of 28.5%.
`CC(C)NC(=O)c1cccc(Nc2c(-c3ccc(Cl)cc3)nc3cnccn23)c1` [P22407, 3-[[2-(4-chlorophenyl)imidazo[1,2-a]pyrazin-3-yl]amino]-N-propan-2-ylbenzamide] was tested, and the inhibition at 50 µM was 32.6%.
Molecule `COc1ccc(-c2nc3cnccn3c2Nc2ccc(C(=O)N3CCCCC3)cc2)cc1` [P22454, [4-[[2-(4-methoxy-phenyl)imidazo[1,2-a]pyrazin-3-yl]amino]phenyl]-piperidin-1-ylmethanone] has an inhibition at 50 µM of 31.8%.
`O=C(NCc1ccco1)c1cccc(Nc2c(-c3ccccc3)nc3cnccn23)c1` [P22449, N-(furan-2-ylmethyl)-3-[(2-phenylimidazo [1,2-a]pyrazin-3-yl)amino]benzamide] gave an inhibition at 50 µM of 27.5%.
Work on `COC(=O)c1cccc(Nc2c(-c3ccc([N+](=O)[O-])cc3)nc3cnccn23)c1` [P24823, methyl 3-[[2-(4-nitrophenyl)imidazo[1,2-a]pyrazin-3-yl]amino] benzoate] yielded an inhibition at 50 µM of 31.2%.
Work on `COc1ccc(-c2nc3cnccn3c2Nc2ccc(C(=O)O)cc2)cc1` [P19514, 4-[[2-(4-methoxy-phenyl)imidazo[1,2-a]pyrazin-3-yl]amino] benzoic acid] yielded an inhibition at 50 µM of 36%.
For `O=C(NCC1CCCO1)c1cccc(Nc2c(-c3ccc(Cl)cc3)nc3cnccn23)c1` (stereo not shown) [P22408, 3-[[2-(4-chlorophenyl)imidazo[1,2-a]pyrazin-3-yl]amino]-N-(oxolan-2-ylmethyl)benzamide], the inhibition at 50 µM was 17.3%.
Molecule `COC(=O)c1cccc(Nc2c(-c3ccc(C)cc3)nc3cnccn23)c1` [P19515, methyl 3-[[2-(4-methyl-phenyl)imidazo[1,2-a]pyrazin-3-yl]amino] benzoate] has an inhibition at 50 µM of 37.1%.
Molecule `COC(=O)c1ccc(-c2nc3cnccn3c2Nc2c(C)cccc2C)cc1` [P37307, methyl 4-[3-(2,6-dimethyl-anilino)imidazo[1,2-a]pyrazin-2-yl] benzoate] has an inhibition at 50 µM of 43.4%.
Work on `O=C(O)c1cccc(Nc2c(-c3ccc(N4CCOCC4)cc3)nc3cnccn23)c1` [P24833, 3-[[2-(4-morpholin-4-ylphenyl)imidazo [1,2-a]pyrazin-3-yl]amino]benzoic acid] yielded an inhibition at 50 µM of 35.1%.
`COc1ccc(-c2nc3cnccn3c2Nc2ccc(C(=O)NCc3ccco3)cc2)cc1OC` [P22480, 4-[[2-(3,4-dimethoxy-phenyl)imidazo[1,2-a]pyrazin-3-yl]amino]-N-(furan-2-ylmethyl)benzamide] showed an inhibition at 50 µM of 40.6%.
Work on `O=C(c1cccc(Nc2c(-c3ccccc3)nc3cnccn23)c1)N1CCOCC1` [P22409, morpholin-4-yl-[3-[(2-phenylimidazo [1,2-a]pyrazin-3-yl)amino]phenyl] methanone] yielded an inhibition at 50 µM of 28.2%.
`CCOC(=O)c1ccc(Nc2c(-c3cc(Br)ccc3O)nc3cnccn23)cc1` [P22542, ethyl 4-[[2-(5-bromo-2-hydroxyphenyl)imidazo [1,2-a]pyrazin-3-yl]amino]benzoate] was tested, and the inhibition at 50 µM was 31.5%.
Work on `COC(=O)c1ccc(-c2nc3cnccn3c2Nc2ccc(C(C)C)cc2)cc1` [P37297, methyl 4-[3-(4-propan-2-ylanilino)imidazo[1,2-a]pyrazin-2-yl] benzoate] yielded an inhibition at 50 µM of 22.3%.
Work on `CCNC(=O)c1cccc(Nc2c(-c3ccc(Cl)cc3)nc3cnccn23)c1` [P22456, 3-[[2-(4-chlorophenyl)imidazo[1,2-a]pyrazin-3-yl]amino]-N-ethylbenzamide] yielded an inhibition at 50 µM of 30.3%.
Work on `COc1ccc(-c2nc3cnccn3c2Nc2ccc(C(=O)N3CCOCC3)cc2)cc1` [P22405, [4-[[2-(4-methoxy-phenyl)imidazo[1,2-a]pyrazin-3-yl]amino]phenyl]-morpholin-4-ylmethanone] yielded an inhibition at 50 µM of 36.5%.
In the case of `COC(=O)c1ccc(-c2nc3cnccn3c2Nc2ccc3c(c2)OCO3)cc1` [P24872, methyl 4-[3-(1,3-benzodioxol-5-ylamino)imidazo [1,2-a]pyrazin-2-yl]benzoate], the inhibition at 50 µM was 27.2%.
